From patent publication US20210163437A1, “DERIVATIVES OF TRICYCLIC SPIROLACTONES AND USES THEREOF IN TREATMENT AND MANAGEMENT OF PAIN” (Yissum Research Development Company of The Hebrew …, priority 2017, published 2021)
Several values for one entry are separate records, joined by “and”; a condition that tells them apart may be missing. Equal entries are not always repeated. Entries after “also recorded” stand apart in the source; their conditions may differ.

How the values were obtained:
Format in all cases: cell-based
rat TRPV1 (rTRPV1) [1] = molecular target: T1, rat TRPV1 (rTRPV1) (Rattus norvegicus, UniProt O35433); test: live-cell calcium imaging of HEK293T cells transiently expressing rat TRPV1; conditions: for compound-evoked calcium response normalized to the capsaicin (2 μM)-evoked response: compound 300 μM (0.3 mM), fura-2-loaded HEK293T transiently expressing rTRPV1, only capsaicin positive cells analyzed
T1 construct: expressed in transfected cells; host or cells: HEK293T (transient)
T1 sequence (O35433 whole entry): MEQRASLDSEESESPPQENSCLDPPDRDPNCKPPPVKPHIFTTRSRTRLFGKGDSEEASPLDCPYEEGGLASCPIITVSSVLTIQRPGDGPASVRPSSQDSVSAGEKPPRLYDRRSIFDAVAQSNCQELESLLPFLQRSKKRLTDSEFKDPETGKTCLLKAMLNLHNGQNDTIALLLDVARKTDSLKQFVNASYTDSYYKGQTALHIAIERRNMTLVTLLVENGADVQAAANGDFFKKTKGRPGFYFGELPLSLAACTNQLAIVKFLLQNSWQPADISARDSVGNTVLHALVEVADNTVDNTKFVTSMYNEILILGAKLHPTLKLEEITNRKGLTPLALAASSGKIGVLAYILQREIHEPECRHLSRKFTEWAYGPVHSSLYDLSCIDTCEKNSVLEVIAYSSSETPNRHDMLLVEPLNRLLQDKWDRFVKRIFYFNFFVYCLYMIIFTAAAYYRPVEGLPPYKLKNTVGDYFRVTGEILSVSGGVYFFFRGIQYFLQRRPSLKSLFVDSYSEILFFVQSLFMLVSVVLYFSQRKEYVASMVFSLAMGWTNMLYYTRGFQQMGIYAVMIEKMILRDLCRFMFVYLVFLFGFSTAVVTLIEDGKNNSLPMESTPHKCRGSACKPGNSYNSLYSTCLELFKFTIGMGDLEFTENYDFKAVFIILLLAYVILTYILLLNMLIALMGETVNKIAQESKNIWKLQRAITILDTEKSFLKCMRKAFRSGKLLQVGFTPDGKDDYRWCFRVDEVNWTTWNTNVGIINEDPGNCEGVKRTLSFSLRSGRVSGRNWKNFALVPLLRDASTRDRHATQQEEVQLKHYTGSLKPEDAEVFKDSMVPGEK
Protocol: (3A) Top: Captured pseudocolor images of fura-2-loaded HEK293T cells transiently expressing rTRPV1, before (“Basal”) and after the application of synthesized tricyclic spirolactones (300 μM; ‘Comp.’), followed by the subsequent application of capsaicin (2 μM; “Cap”). Scale bar indicates level of intracellular calcium. Bottom: Box and whiskers plot showing the indicated compound (300 μM)-evoked calcium response of HEK293T cells expressing rTRPV1, normalized to the capsaicin (2 μM)-evoked response. Boxes represent the mean of 3-4 independent experiments (each n≥50 cells); only capsaicin-positive cells were analyzed. Statistical significance between the different compounds' normalized responses is indicated as follows: *p≤0.05; ***p≤0.001; ns, no statistical significance (ANOVA followed by multiple comparison test). (3B) Top: Captured pseudocolor images of fura-2-loaded HEK293T cells transiently expressing the wt rTRPV1 (“rV1”; top), chicken TRPV1 (“cV1”; middle), or the VBS mutated receptor rTRPV1-Y511G (“YG”; bottom), before (“Basal”) and after the application of compound 13 (300 μM; “13”), which was followed by the subsequent application of 2-APB (300 μM; “2APB”). Scale bar indicates level of intracellular calcium. Bottom: changes with time of intracellular calcium levels in fura-2-loaded HEK293T expressing rat TRPV1 (“rTRPV1”; red line), rat TRPV1-Y511G (“rTRPV1(YG)”; purple line), and chicken TRPV1 (“cTRPV1”; orange line) in response to compound 13 (300 μM; “13”; light gray bar), which was followed by the subsequent application of 2-APB (300 μM; “2APB”; gray bar). Each trace represents an average of 75-130 cells sensitive to 2-APB. […] (3C) Top: Captured pseudocolor images of fura-2-loaded HEK293T cells transiently expressing rTRPV1, before (“Basal”) and after the application of saturated tricyclic spirolactones (300 μM; “Comp.”), which was followed by the subsequent application of capsaicin (2 μM; “Cap”). Scale bar indicates the level of intracellular calcium. […] Boxes represent the mean of 3-4 independent experiments (each n≥50 cells); only capsaicin positive cells were analyzed. Statistical significance between the different compounds' normalized responses is indicated as follows: **p≤0.01; ***p≤0.001; ns, no statistical significance (ANOVA followed by multiple comparison test).
(§1) To examine whether the compact tricyclic spirolactones activate TRPV1, we scanned a library of synthesized compounds illustrated in FIG. 2C. […] To test this possibility, we recoded the response of rTRPV1 transiently expressed in HEK293T cells in the whole-cell or inside-out patch clamp configurations.

[2] = tested on: acutely dissociated trigeminal ganglia neurons; test: neuronal response of acutely dissociated trigeminal ganglia neurons; conditions: compared with capsaicin sensitivity
Protocol: To examine whether the compact tricyclic spirolactones activate TRPV1, we scanned a library of synthesized compounds illustrated in FIG. 2C. […] Although our compounds are less hydrophobic than other VBS-binding molecules (e.g., capsaicin), most synthesized compounds could not be prepared in physiological salt solutions (i.e., Ringer) at concentrations greater than 1 mM without adding cytotoxic levels of DMSO. […] To confirm that the observed calcium increase is a direct result of TRPV1 activation through the VBS, we used chicken TRPV1, which is insensitive to vanilloids28, and VBS-mutated rat TRPV1 (rTRPV1(Y511G)). […] The functionality and expression of these channels were verified by their sensitivity to 2-aminoethoxydiphenyl borate (2-APB), a non-VBS TRPV1 activator. We next investigated the selectivity of compound 13 to TRPV1 by examining the neuronal response of acutely dissociated trigeminal ganglia neurons. […] A possible explanation to the observed lower response of 13 in comparison to capsaicin might be the accessibility of the compound to the intracellular VBS. To test this possibility, we recoded the response of rTRPV1 transiently expressed in HEK293T cells in the whole-cell or inside-out patch clamp configurations.

chicken TRPV1 = test: live-cell calcium imaging of HEK293T cells transiently expressing chicken TRPV1; conditions: compound 300 μM; followed by 2-APB 300 μM
Protocol: (§2) (3A) Top: Captured pseudocolor images of fura-2-loaded HEK293T cells transiently expressing rTRPV1, before (“Basal”) and after the application of synthesized tricyclic spirolactones (300 μM; ‘Comp.’), followed by the subsequent application of capsaicin (2 μM; “Cap”). Scale bar indicates level of intracellular calcium. Bottom: Box and whiskers plot showing the indicated compound (300 μM)-evoked calcium response of HEK293T cells expressing rTRPV1, normalized to the capsaicin (2 μM)-evoked response. Boxes represent the mean of 3-4 independent experiments (each n≥50 cells); only capsaicin-positive cells were analyzed. Statistical significance between the different compounds' normalized responses is indicated as follows: *p≤0.05; ***p≤0.001; ns, no statistical significance (ANOVA followed by multiple comparison test). (3B) Top: Captured pseudocolor images of fura-2-loaded HEK293T cells transiently expressing the wt rTRPV1 (“rV1”; top), chicken TRPV1 (“cV1”; middle), or the VBS mutated receptor rTRPV1-Y511G (“YG”; bottom), before (“Basal”) and after the application of compound 13 (300 μM; “13”), which was followed by the subsequent application of 2-APB (300 μM; “2APB”). Scale bar indicates level of intracellular calcium. […] Boxes represent the mean of 3-4 independent experiments (each n≥50 cells); only capsaicin positive cells were analyzed. […]

rTRPV1 [3] = molecular target: T2, rTRPV1 (Rattus norvegicus, UniProt O35433); test: calcium imaging of rTRPV1 stably expressed in HEK293 cells (concentration-response, capsazepine block); conditions: for EC50 / Hill coefficient n: normalized concentration-response, fit to the Hill equation, rTRPV1 stably expressed in HEK293 cells
T2 construct: expressed in transfected cells
T2 sequence (O35433 whole entry): as above
From the text: (§3) Each point represents the average (±SEM) response of 50 cells. […] Scale bar indicates level of intracellular calcium.
To further analyze the role of the aromatic anchor in TRPV1 activation by spirolactones, we compared the affinity of 13 to its vanilloid derivative 32.

rTRPV1(Y511G) = molecular target: T3, rTRPV1(Y511G) (Rattus norvegicus, UniProt O35433, Y511G); test: live-cell calcium imaging of HEK293T cells transiently expressing VBS-mutated rat TRPV1; conditions: compound 300 μM; followed by 2-APB 300 μM
T3 construct: expressed in transfected cells; host or cells: HEK293T (transient)
T3 sequence (O35433 whole entry Y511G): as the sequence (O35433 whole entry) above, with Y511G counted along it
Protocol: as §2

rat TRPV1 (rTRPV1) [4] = molecular target: T1, rat TRPV1 (rTRPV1); test: live-cell calcium imaging of HEK293T cells transiently expressing rat TRPV1; conditions: compound 18 at 0.3 mM or 1 mM applied before compound 13 (1 mM)
rTRPV1 [5] = molecular target: T2, rTRPV1; test: patch clamp of rTRPV1 transiently expressed in HEK293T cells; conditions: voltage ramps between −80 and +80 mV; compound 32 1 mM, capsaicin 2 μM
From the text: as §3, §1
TRPV1 is a non-selective cationic ion channel with a typical current profile. To examine whether our novel structure architecture activates the channel similarly as other VBS -associated agonists, we analyzed the current profile using the whole-cell configuration of the patch clamp technique. Using voltage ramps between −80 and +80 mV, we analyzed the channel response to 32 and capsaicin.

SMILES: C=C1C[C@H]2CCC[C@H]3CC(=O)O[C@@]23C1 [Compound 10]
- compound-evoked calcium response normalized to the capsaicin (2 μM)-evoked response (rat TRPV1 (rTRPV1) [1]): active compounds

SMILES: O=C1C[C@@H]2CC[C@@H]3CC=CC[C@]32O1 [Compound 13]
- selectivity to TRPV1: neuronal response [2]: activated only capsaicin sensitive neurons
- activation of chicken TRPV1 (intracellular calcium) (chicken TRPV1): did not activate
- EC50 (rTRPV1 [3]): 127 ± 8.9 µM
- Hill coefficient n (rTRPV1 [3]): 2.7 and 2.7±0.5
- activation of VBS-mutated rTRPV1-Y511G (intracellular calcium) (rTRPV1(Y511G)): did not activate
- compound-evoked calcium response normalized to the capsaicin (2 μM)-evoked response (rat TRPV1 (rTRPV1) [1]): unexpectedly robust response

SMILES: CC1C[C@H]2CCC[C@H]3CC(=O)O[C@@]23C1 (some centres unmarked) [Compound 15]
- compound-evoked calcium response normalized to the capsaicin (2 μM)-evoked response (rat TRPV1 (rTRPV1) [1]): active compounds

SMILES: O=C1C[C@@H]2CC[C@@H]3CCCC[C@]32O1 [Compound 18]
- inhibitory effect on the response of compound 13 (rat TRPV1 (rTRPV1) [4]): had no effect
- compound-evoked calcium response normalized to the capsaicin (2 μM)-evoked response (rat TRPV1 (rTRPV1) [1]): most dramatic decrease in the level of activation

SMILES: O=C1C[C@@H]2CC[C@H]3C/C(=C/c4ccccc4)C[C@@]23O1 [Compound 23]
- compound-evoked calcium response normalized to the capsaicin (2 μM)-evoked response (rat TRPV1 (rTRPV1) [1]): no activity was detected

SMILES: O=C1O[C@@]23CC=CC[C@H]2CC[C@H]3[C@H]1Cc1ccccc1 [Compound 31]
- compound-evoked calcium response normalized to the capsaicin (2 μM)-evoked response (rat TRPV1 (rTRPV1) [1]): strongest response; also recorded: capsaicin-like activity

SMILES: COc1cc(C[C@H]2C(=O)O[C@@]34CC=CC[C@H]3CC[C@@H]24)ccc1O [Compound 32]
- EC50 (rTRPV1 [3]): 12.8 ± 1.6 µM
- Hill coefficient n (rTRPV1 [3]): 1.4 and 1.4±0.2
- compound-evoked calcium response normalized to the capsaicin (2 μM)-evoked response (rat TRPV1 (rTRPV1) [1]): strongest response; also recorded: capsaicin-like activity
- current-voltage profile, whole-cell patch clamp (rTRPV1 [5]): robust, outwardly rectifying currents of similar magnitude; also recorded: elicits the typical TRPV1 outwardly rectifying current

SMILES: O=C1O[C@@]23CCCC[C@H]2CC[C@H]3[C@H]1Cc1ccccc1 [Compound 34]
- compound-evoked calcium response normalized to the capsaicin (2 μM)-evoked response (rat TRPV1 (rTRPV1) [1]): significant channel activation
- time course of the evoked calcium response (rat TRPV1 (rTRPV1) [1]; compound 300 μM, compared to compound 13 or 32): transiently response

SMILES: COc1cc(CNC(=O)CCCC/C=C/C(C)C)ccc1O [capsaicin, reference compound]
- current-voltage profile, whole-cell patch clamp (rTRPV1 [5]): robust, outwardly rectifying currents of similar magnitude

SMILES: Oc1cc2c(cc1O)CN(C(=S)NCCc1ccc(Cl)cc1)CCC2 [capsazepine, reference compound]
- inhibition of TRPV1 activation by compound 32 (rTRPV1 [3]; CPZ 20 μM, pre-incubation or application after pre-activation by 32 (100 and 300 μM)): resulted in channel inhibition
